Assays:
[1] = test system: bicuculline-induced epileptic seizures; experiment: Delay of onset of bicuculline-induced seizures (anticonvulsant activity); format: in vivo, mouse; settings: graded 0-5
Method: In a second behavioral test, the ability of a substance to prevent or delay the onset of biculline-induced epileptic seizures was measured. […] At 24 hr after i.p. injection of the cholesteryl derivative at a dose of 30 mg/kg (64 pmol/kg), the onset of seizures was delayed by 30% after an acute i.p. injection of bicuculline at 0.3 mg/kg. […] The dexamethasone and butyl esters had no effect.
The compounds were also injected i.p. at 1, 6 and 24 hr before the administration of bicuculline (0.3 mg/kg) s.c. The latency to the onset of generalized tonic-clonic epileptic seizures and the protection against the lethality of bicuculline were measured and evaluated as a percent of the data for vehicle-injected controls. No significant changes were obtained at the 1 hr and 6 hr time points. At the 24 hr time, however, some compounds delayed while others accelerated the onset of seizures.
The effect of the compound to delay the onset of a bicuculline-induced seizures was evaluated.
The ability of a substance to delay the onset of bicuculline-induced epileptic seizures in the mouse was measured (Table X). […] At 24 hr after i.p. injection of the cholesteryl derivative (6) at a dose of 30 mg/kg (64 pmol/kg), the onset of seizures was delayed by 30% (as compared to saline controls) after an acute i.p. injection of bicuculline at 0.3 mg/kg. […] The dexamethasone and butyl esters had no effect on seizures in mice.

[2] = test system: general motor activity of mice; experiment: General locomotor activity of mice (Stoelting electronic activity monitor); format: in vivo, Balb/c mice
Method: The effect of intraperitoneal (i.p.) injections of test compounds on the general motor activity of mice during a 60-min period was determined in a Stoelting electronic activity monitor. Dose-response curves were obtained from which the half-maximally effective values were calculated and the results are shown in Table V.
The compounds were dissolved in 25% (vols.) propylene glycol in water and injected i.p. into Balb/c mice (18-24 g). Dose-response measurements were obtained for 6 animals per dose or time point. Activity was monitored for 60 min using a Stoelting Electronic Activity Monitor (EAM) apparatus to assess the general motor activity of the animals.
The general locomotor activity of mice was measured in the Stolting activity monitor apparatus during 60 min after an intraperitoneal (i.p.) injection of a test compound.

[3] = test system: general motor activity of mice; experiment: as above; format: in vivo, Balb/c mice; settings: 500 µg administered intracisternally directly into the cerebrospinal fluid
[4] = test system: CAI pyramidal cells; format: cell-based, Sprague-Dawley rats
Method: Transverse slices of hippocampus (350-375 µm thick) were prepared from Sprague-Dawley rats (200-300 g) and transferred onto a nylon net fixed over a 1.5 ml superfusion chamber. The slices were maintained at 32-33°C in a humidified atmosphere of 95%/5% 02/C02. The standard medium consisted of (in mM): NaCl, 125; KCI, 3.5; CaC12,2; MgS04, 1.5; NaH2PO4, 1; NaHC03, 24; and glucose, 10. Low chloride medium was prepared by substituting sodium isethionate for sodium chloride.
Extracellular potentials were recorded with NaCI-fitted micropipettes, and stimulus pulses were applied through bipolar platinum wire electrodes. The various drugs were dissolved in fresh medium (without glucose and phosphate) and applied to the surface of the tissue by pressure ejection from a micropipette, Sakai, Swartz and Woody, (1979).
The inhibitory effectiveness of various compounds was investigated by measuring their ability to suppress the extracellular population spike recorded from the hippocampal CAI pyramidal layer and elicited by stimulation of stratum radiatum axons. The amplitude of this monosynaptic population spike is essentially proportional to the number of pyramidal cells discharging in response to a stimulus volley, Andersen, Bliss and Skrede, (1971).
The various compounds were applied as droplets to the pyramidal layer approximately 75 µm from the recording electrode. The volume of a single drug application was about 300 picoliters. […] The volume ejected from each pipette was calibrated prior to use by measuring the diameter of the ejected droplet and adjusting the duration of the pressure pulse (usually 100-500 msec) until a standard diameter was reached. A constant droplet volume was used throughout the experiments. Where dose-response information was required, several pipettes with different drug concentrations were used.

[5] = test system: general motor activity; settings: systemically injected doses of up to 1 g/kg (9.7 mmol/kg); previous experiments; cited from earlier work
[6] = Comparative brain/liver uptake of 14C-labeled compounds (Brain Penetration Index)
Method: The criterion used herein for measuring the extent to which a compound, from which the radical A is derived, crosses the blood-brain barrier is based on the uptake of this compound by the brain relative to its uptake by the liver. […] Measurements of the quantity of a compound present in brain and liver at 5 minutes after a subcutaneous (s.c.) injection were used to calculate a Brain Penetration Index (BPI), with the equation: [formula]
This is the amount of the compound present per gram of brain tissue as a percent of the amount per gram of liver tissue.
This procedure has the advantage that even for a sparingly soluble lipid ester, which tends to remain largely at the site of the injection and slowly diffuse into the circulation, its level in the liver will reflect the amount available rather than the initial dose injected.
The uptake of a ^14C-labeled compound into brain was compared with the uptake into liver of the same animal.
All determinations were carried out at 5 min after injection. The volumes of the injected doses into mice (body weight, 18-24 g) for the i.v., i.p., and s.c. doses were 0.15, 0.3 and 0.5 ml, respectively. […] Each tissue was homogenized in 8 ml of pyridine in a glass homogenizer.
Each labeled test compound was injected as a solution in 0.5 ml of saline (Compound 7) or in 25% propylene glycol in water (Compounds 1, 5, 6) subcutaneously (s.c.) into young adult Balb/c mice (18-24 g body weight). After 5 min (or longer) animals were sacrificed and the brain and liver removed, weighed and homogenized respectively in 8 ml and 10 ml of brain protein solvent (1 % (w/v) sodium dodecyl sulfate in 6 M urea and 19 mM EDTA, pH 7.4, 0.03 M phosphate). Aliquots (0.5 ml) of the homogenates were mixed with 10 ml of Aquasol 2 (New England Nuclear) and counted in a Beckman liquid scintillation counter. The total uptake of each compound per g brain and liver tissue was calculated. The proportion of uptake into brain as compared to liver (100%) of the same animal was designated as the Brain Penetration Index (BPI), expressed as a percentage typically at 5 min after injection.
Each of the ^14C-labeled Compounds 26, 28 and 30 were in 125 µl of the propylene glycol diluted with water up to 0.5 ml, and then injected subcutaneously into test Balb/c mice (20 ± 2 g weight). After 5 min the animals were sacrificed and the brain and liver were removed, weighed and homogenized in 8 ml and 10 ml of brain protein solvent, respectively. Next 0.5 ml aliquots were mixed with 10 ml of Aquasol 2 (New England Nuclear Corp., Boston, MA) and counted in a Beckman liquid scintillation counter. The data for the label in each tissue were used to calculate the total quantity of the compound present in brain and liver per gram of tissue. The ratio of the amount in brain as a percent of that present in liver at 5 min was taken as the Brain Penetration Index (BPI). Measurements at longer uptake times were also obtained to evaluate the accumulation of the compounds in the brain.

[7] = Table VI, 270 μmol/kg s.c., 5 min, Balb/c mice

With `NCCCC(=O)O` [GABA, gamma-aminobutyric acid, reference compound] the “In Vivo Delay of Time of Onset of Bicuculline-induced seizures” value [1] was 0, the “effect on general motor activity” value ([2]; 1.94 mmol/kg, i.p.) was “no significant effect” and the “effect on general locomotor activity” value ([2]; dose of 9.7 mmol/kg (1 g/kg)) was “no significant effect”. For the same molecule, the “effect on general motor activity” value [3] was “no significant effect”, the “effect after incubation of slices in PMSF (0.5 mM) for about 45 min” value [4] was “no change” and the “effect with picrotoxin (10 µM) in the medium or low chloride medium” value [4] was “little effect”. The “recovery of the population spike amplitude to 90% of the pre-droplet control value” ([4]; after an approximately half-maximal dose) was 1 to 2 min, the “time until recovery was usually complete” value ([4]; after droplet application) was 2 to 3 min and the “effect on motor activity in rats” value [5] was “little effect”. For the same molecule, the “(BRAIN)” value ([6]; 30 μmol/kg i.v., 5 min, mouse) was 0.04 nmol/g, the “(LIVER)” value ([6]; 30 μmol/kg i.v., 5 min, mouse) was 4.2 nmol/g and the “BPI (5 min)” value ([6]; 30 μmol/kg i.v., 5 min, mouse) was 0.95%. The “(BRAIN)” value ([6]; 60 μmol/kg i.p., 5 min, mouse) was 0.23 nmol/g, the “(LIVER)” value ([6]; 60 μmol/kg i.p., 5 min, mouse) was 29 nmol/g and the “BPI (5 min)” value ([6]; 60 μmol/kg i.p., 5 min, mouse) was 0.80%. For the same molecule, the “(BRAIN)” value ([6]; 120 μmol/kg i.p., 5 min, mouse) was 0.45 nmol/g, the “(LIVER)” value ([6]; 120 μmol/kg i.p., 5 min, mouse) was 46 nmol/g and the “BPI (5 min)” value ([6]; 120 μmol/kg i.p., 5 min, mouse) was 1.00%. The “(BRAIN)” value ([6]; 160 μmol/kg i.p., 5 min, mouse) was 0.66 nmol/g, the “(LIVER)” value ([6]; 160 μmol/kg i.p., 5 min, mouse) was 71 nmol/g and the “BPI (5 min)” value ([6]; 160 μmol/kg i.p., 5 min, mouse) was 0.93%. For the same molecule, the “(BRAIN)” value ([6]; 210 μmol/kg i.p., 5 min, mouse) was 0.83 nmol/g, the “(LIVER)” value ([6]; 210 μmol/kg i.p., 5 min, mouse) was 83 nmol/g and the “BPI (5 min)” value ([6]; 210 μmol/kg i.p., 5 min, mouse) was 1.00%. For the same molecule, the “(BRAIN)” value ([6]; 270 μmol/kg s.c., 5 min, mouse) was 1.03 nmol/g, the “(LIVER)” value ([6]; 270 μmol/kg s.c., 5 min, mouse) was 104 nmol/g and the “BPI (5 min)” value ([6]; 270 μmol/kg s.c., 5 min, mouse) was 1.00%. For the same molecule, the “(BRAIN)” value ([6]; 380 μmol/kg s.c., 5 min, mouse) was 1.81 nmol/g, the “(LIVER)” value ([6]; 380 μmol/kg s.c., 5 min, mouse) was 165 nmol/g and the “BPI (5 min)” value ([6]; 380 μmol/kg s.c., 5 min, mouse) was 1.10%. For the same molecule, the BPI ([6]; Table IX summary, 5-min Brain Penetration Index) was 1, the “(BRAIN)” value [6, 7] was 1.03 nmol/g and the “(LIVER)” value [6, 7] was 104 nmol/g. For the same molecule, the BPI ([6]; Table VI, 270 μmol/kg s.c., 5 min, Balb/c mice, mean ± S.E.M.) was 1±.09%.

Source: EP0133795B1 (THE McLEAN HOSPITAL CORPORATION, priority 1983, dated 1985)
